Drawing on patent US20260078120A1, “SUBSTITUTED PYRIDOPYRIMIDINONES” (MIRATI THERAPEUTICS, INC., priority 2022, published 2026), this text covers IC50 for 23 molecules.

pIC50: −log10 of the molar value. Where only a bound is given, the exact number is not on record here.

For test [1], the system named is T47D (PI3Kα H1047R mutant) cells. Description: CellTiter-Glo 2.0 luminescent cell viability assay, 72 hours, T47D cells. The class given is cell-based. As to conditions: Homo sapiens, T47D, 72 h, T47D (PI3Kα H1047R mutant) cells, CellTiter-Glo, approximately 72 hours; read-out: T47D (H1047R mutant) Viability IC50. The method in brief:
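Viability was measured by CellTiter-Glo 2.0 luminescence after approximately 72 h of compound exposure at 37° C. Plating was 1000 cells per well the day before dosing, with ten 1:4 dilutions from a 10 µM top concentration. Values as percent of vehicle were fitted by variable-slope log(inhibitor) regression to give IC50.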

Test [2] relates to SKBR3 (PI3Kα wild type) cells. Description: CellTiter-Glo 2.0 luminescent cell viability assay, 72 hours, SKBR3 cells. Type of test: cell-based. The settings on record: Homo sapiens, SK-BR-3, 72 h, SKBR3 (PI3Kα wild type) cells, CellTiter-Glo, approximately 72 hours; read-out: SKBR3 (WT) Viability IC50. The method in brief: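 Viability measured via CTG luminescence following roughly 72 hours of compound exposure at 37° C. Dosing used a 10 um starting concentration diluted 1:4 over 10 points; percent-of-vehicle data fitted with a variable-slope four-parameter model for IC50.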

For `Cc1cc([C@@H](C)Nc2ccccc2C(=O)O)c2nc(NC[C@H]3CCOC3)c(C)c(=O)n2c1` [Example 11-196, 2-(((R)-1-(3,7-dimethyl-4-oxo-2-((((R)-tetrahydrofuran-3-yl)methyl)amino)-4H-pyrido[1,2-a]pyrimidin-9-yl)ethyl)amino)benzoic acid], the results for the negative-log IC50 (pIC50) in test [1] and in test [2] were 6.19 and less than 5.00, respectively.
In the same order, the values of `Cc1cc([C@@H](C)Nc2ccccc2C(=O)O)c2nc(NCC3CCOC3)c(C)c(=O)n2c1` (stereo partly drawn) [Example 11-197, 2-(((1R)-1-(3,7-dimethyl-4-oxo-2-(((tetrahydrofuran-3-yl)methyl)amino)-4H-pyrido[1,2-a]pyrimidin-9-yl)ethyl)amino)benzoic acid] are 5.89 and less than 5.00.
In the same order, the values of `Cc1cc([C@@H](C)Nc2ccccc2C(=O)O)c2nc(NCC3CC(F)(F)C3)c(C#N)c(=O)n2c1` [Example 11-198, (R)-2-((1-(3-cyano-2-(((3,3-difluorocyclobutyl)methyl)amino)-7-methyl-4-oxo-4H-pyrido[1,2-a]pyrimidin-9-yl)ethyl)amino)benzoic acid] are 6.63 and less than 5.00.
Take `Cc1cc([C@@H](C)Nc2ccccc2C(=O)O)c2nc(NCC3CC(F)(F)C3)c(C)c(=O)n2c1` [Example 11-199, (R)-2-((1-(2-(((3,3-difluorocyclobutyl)methyl)amino)-3,7-dimethyl-4-oxo-4H-pyrido[1,2-a]pyrimidin-9-yl)ethyl)amino)benzoic acid]: the pIC50 in test [1] was 6.30; in test [2], less than 5.00.
On the same counts, the results for `Cc1cc([C@@H](C)Nc2ccccc2C(=O)O)c2nc(N3CC4(CCC4(F)F)C3)c(C#N)c(=O)n2c1` [Example 11-200, (R)-2-((1-(3-cyano-2-(5,5-difluoro-2-azaspiro[3.3]heptan-2-yl)-7-methyl-4-oxo-4H-pyrido[1,2-a]pyrimidin-9-yl)ethyl)amino)benzoic acid] are 6.89 and less than 5.00.
As to `Cc1cc([C@@H](C)Nc2ccccc2C(=O)O)c2nc(N3CC4(CCC4(F)F)C3)c(C)c(=O)n2c1` [Example 11-201, (R)-2-((1-(2-(5,5-difluoro-2-azaspiro[3.3]heptan-2-yl)-3,7-dimethyl-4-oxo-4H-pyrido[1,2-a]pyrimidin-9-yl)ethyl)amino)benzoic acid], the pIC50 was 6.93 in test [1] and less than 5.00 in test [2].
Take `Cc1cc([C@@H](C)Nc2ccccc2C(=O)O)c2nc(N3CC4(C3)CC(F)(F)C4)c(C)c(=O)n2c1` [Example 11-202, (R)-2-((1-(2-(6,6-difluoro-2-azaspiro[3.3]heptan-2-yl)-3,7-dimethyl-4-oxo-4H-pyrido[1,2-a]pyrimidin-9-yl)ethyl)amino)benzoic acid]: the pIC50 in test [1] is 6.52; in test [2], less than 5.00.
On the same counts, the results for `Cc1cc([C@@H](C)Nc2ccccc2C(=O)O)c2nc(N(C)CC3CC3)c(C)c(=O)n2c1` [Example 11-203, (R)-2-((1-(2-((cyclopropylmethyl)(methyl)amino)-3,7-dimethyl-4-oxo-4H-pyrido[1,2-a]pyrimidin-9-yl)ethyl)amino)benzoic acid] are 6.45 and less than 5.00.
On to `Cc1cc([C@@H](C)Nc2ccccc2C(=O)O)c2nc(NCC3COC3)c(C#N)c(=O)n2c1` [Example 11-204, (R)-2-((1-(3-cyano-7-methyl-2-((oxetan-3-ylmethyl)amino)-4-oxo-4H-pyrido[1,2-a]pyrimidin-9-yl)ethyl)amino)benzoic acid], for which the negative logarithm of the IC50 (pIC50) in test [1] was 5.80; in test [2], less than 5.00.
In the same order, the values of `Cc1cc([C@@H](C)Nc2ccccc2C(=O)O)c2nc(NCC3COC3)c(C)c(=O)n2c1` [Example 11-205, (R)-2-((1-(3,7-dimethyl-2-((oxetan-3-ylmethyl)amino)-4-oxo-4H-pyrido[1,2-a]pyrimidin-9-yl)ethyl)amino)benzoic acid] are 5.81 and less than 5.00.
On the same counts, the results for `Cc1cc([C@@H](C)Nc2ccc(Cl)nc2C(=O)O)c2nc(NCC3CC3)c(C#N)c(=O)n2c1` [Example 11-206, (R)-6-chloro-3-((1-(3-cyano-2-((cyclopropylmethyl)amino)-7-methyl-4-oxo-4H-pyrido[1,2-a]pyrimidin-9-yl)ethyl)amino)picolinic acid] are 6.88 and less than 5.00.
Turning to `Cc1cc([C@@H](C)Nc2ccccc2C(=O)O)c2nc(NCC3CC3)c(C)c(=O)n2c1` [Example 11-207, (R)-2-((1-(2-((cyclopropylmethyl)amino)-3,7-dimethyl-4-oxo-4H-pyrido[1,2-a]pyrimidin-9-yl)ethyl)amino)benzoic acid], the values for the pIC50 in test [1] and in test [2] were 6.47 and less than 5.00, respectively.
On the same counts, the results for `Cc1cc([C@@H](C)Nc2ccccc2C(=O)O)c2nc(N3CCC4(CC3)COC4)c(C#N)c(=O)n2c1` [Example 11-208, (R)-2-((1-(3-cyano-7-methyl-4-oxo-2-(2-oxa-7-azaspiro[3.5]nonan-7-yl)-4H-pyrido[1,2-a]pyrimidin-9-yl)ethyl)amino)benzoic acid] are 6.33 and less than 5.00.
Turning to `Cc1cc([C@@H](C)Nc2ccccc2C(=O)O)c2nc(N3CCC[C@@H](C(F)(F)F)C3)c(C#N)c(=O)n2c1` [Example 11-209, 2-(((R)-1-(3-cyano-7-methyl-4-oxo-2-((R)-3-(trifluoromethyl)piperidin-1-yl)-4H-pyrido[1,2-a]pyrimidin-9-yl)ethyl)amino)benzoic acid], the values for the pIC50 in test [1] and in test [2] were 6.36 and less than 5.00, respectively.
Consider `Cc1cc([C@@H](C)Nc2ccccc2C(=O)O)c2nc(N3CCC[C@H](C(F)(F)F)C3)c(C#N)c(=O)n2c1` [Example 11-210, 2-(((R)-1-(3-cyano-7-methyl-4-oxo-2-((S)-3-(trifluoromethyl)piperidin-1-yl)-4H-pyrido[1,2-a]pyrimidin-9-yl)ethyl)amino)benzoic acid], for which the pIC50 is 6.44 in test [1] and less than 5.00 in test [2].
In the same order, the values of `Cc1cc([C@@H](C)Nc2ccccc2C(=O)O)c2nc(N3CCC[C@@H](C(F)(F)F)C3)c(C)c(=O)n2c1` [Example 11-211, 2-(((R)-1-(3,7-dimethyl-4-oxo-2-((R)-3-(trifluoromethyl)piperidin-1-yl)-4H-pyrido[1,2-a]pyrimidin-9-yl)ethyl)amino)benzoic acid] are 6.28 and less than 5.00.
For the molecule `Cc1cc([C@@H](C)Nc2ccccc2C(=O)O)c2nc(N3CCC[C@H](C(F)(F)F)C3)c(C)c(=O)n2c1` [Example 11-212, 2-(((R)-1-(3,7-dimethyl-4-oxo-2-((S)-3-(trifluoromethyl)piperidin-1-yl)-4H-pyrido[1,2-a]pyrimidin-9-yl)ethyl)amino)benzoic acid], the pIC50 in test [1] is 5.87; in test [2], less than 5.00.
In the same order, the values of `Cc1cc([C@@H](C)Nc2ccccc2C(=O)O)c2nc(N3CCC4(CC3)C(F)(F)C4(F)F)c(C)c(=O)n2c1` [Example 11-213, (R)-2-((1-(3,7-dimethyl-4-oxo-2-(1,1,2,2-tetrafluoro-6-azaspiro[2.5]octan-6-yl)-4H-pyrido[1,2-a]pyrimidin-9-yl)ethyl)amino)benzoic acid] are 6.59 and less than 5.00.
Take `Cc1cc([C@@H](C)Nc2ccccc2C(=O)O)c2nc(N3C4CCC3c3ccccc34)c(C#N)c(=O)n2c1` [Example 11-214, 2-(((1R)-1-(3-cyano-7-methyl-4-oxo-2-(1,2,3,4-tetrahydro-1,4-epiminonaphthalen-9-yl)-4H-pyrido[1,2-a]pyrimidin-9-yl)ethyl)amino)benzoic acid]: the pIC50 in test [1] was 6.58; in test [2], less than 5.00.
As to `Cc1cc([C@@H](C)Nc2ccccc2C(=O)O)c2nc(N3C4CCC3c3ccccc34)c(C)c(=O)n2c1` [Example 11-215, 2-(((1R)-1-(3,7-dimethyl-4-oxo-2-(1,2,3,4-tetrahydro-1,4-epiminonaphthalen-9-yl)-4H-pyrido[1,2-a]pyrimidin-9-yl)ethyl)amino)benzoic acid], the values for the pIC50 in test [1] and in test [2] were 6.52 and less than 5.00, respectively.
For the molecule `Cc1cc([C@@H](C)Nc2ccccc2C(=O)O)c2nc(N3CCn4c(nnc4C(F)(F)F)C3)c(C#N)c(=O)n2c1` [Example 11-216, (R)-2-((1-(3-cyano-7-methyl-4-oxo-2-(3-(trifluoromethyl)-5,6-dihydro-[1,2,4]triazolo[4,3-a]pyrazin-7(8H)-yl)-4H-pyrido[1,2-a]pyrimidin-9-yl)ethyl)amino)benzoic acid], the negative logarithm of the IC50 (pIC50) in test [1] and in test [2] was less than 5.00 throughout.
For `Cc1cc([C@@H](C)Nc2ccccc2C(=O)O)c2nc(N3CCn4c(nnc4C(F)(F)F)C3)c(C)c(=O)n2c1` [Example 11-217, (R)-2-((1-(3,7-dimethyl-4-oxo-2-(3-(trifluoromethyl)-5,6-dihydro-[1,2,4]triazolo[4,3-a]pyrazin-7(8H)-yl)-4H-pyrido[1,2-a]pyrimidin-9-yl)ethyl)amino)benzoic acid], the negative-log IC50 (pIC50) in test [1] and in test [2] was less than 5.00 throughout.
`Cc1cc([C@@H](C)Nc2ccccc2C(=O)O)c2nc(N3CCC4(CC3)CC4(F)F)c(C#N)c(=O)n2c1` [Example 11-218, (R)-2-((1-(3-cyano-2-(1,1-difluoro-6-azaspiro[2.5]octan-6-yl)-7-methyl-4-oxo-4H-pyrido[1,2-a]pyrimidin-9-yl)ethyl)amino)benzoic acid]: the pIC50 in test [1] is 6.75; in test [2], less than 5.00.
